Where a name gives a salt, the structure may show the parent alone.
test system: cytokine-stimulated human umbilical vein endothelial cells; test: Cell Adhesion Assay: adherence of fluorescently-labelled leukocytes to endothelial cell monolayers; assay type: cell-based; settings: Homo sapiens; inhibition of cytokine-stimulated adhesion minus basal adhesion; calcein-AM labelled leukocytes on HUVEC monolayers
Protocol: The antiadhesion activity of compounds of the invention was determined using a modification of the previously described method, Jurgensen, C. H. et. al., J. Immunol. 144: 653-661. The adhesiveness of cytokine-stimulated human umbilical vein endothelial cells was assessed by quantitating the adherence of fluorescently-labelled (calcein-AM, Molecular Probes, Eugene, Oreg.) leukocytes to endothelial cell monolayers. Activity was determined by calculating inhibition of cytokine-stimulated adhesion minus the basal adhesion (unstimulated).

IC50 [µM]	SMILES
0.049 ± 0.016	COCCOCCOCCOCCOCCOCCOCCOCCOCCOCc1ccc(-c2nc3c([nH]2)c(=O)n(CC2CCCCC2)c(=O)n3CC2CCCCC2)cc1 [Example 96, 1,3-Bis(cyclohexylmethyl)-8-[4-(2,5,8,11,14,17,20,23,26,29-decaoxatriacont-1-yl)phenyl]-3,7-dihydro-1H-purine-2,6-dione]

same assay, conditions: inhibition of cytokine-stimulated adhesion minus basal adhesion; calcein-AM labelled leukocytes on HUVEC monolayers

IC50 [µM]	SMILES
> 1	COCCOCCOCCOCCOCCOCCOCCOCCOCCOC(=O)/C=C/c1ccc(-c2nc3c(=O)n(Cc4cccnc4)c(=O)n(Cc4cccnc4)c3[nH]2)cc1 [Example 64, (E)-4-(1,3-Bis(3-pyridinylmethyl)-1,2,3,6-tetrahydro-2,6-dioxo-9H-purin-8-yl)cinnamic Acid Nonaethylene Glycol Methyl Ether Ester]
0.27 ± 0.15	COCCOCCOCCOCCOCCOCCOCCOCCOCCOC(=O)/C=C/c1ccc(-c2nc3c(=O)n(Cc4ccccc4)c(=S)n(Cc4ccccc4)c3[nH]2)cc1 [Example 50, (E)-4-(1,3-bis(benzyl)-1,2,3,6-tetrahydro-2-thioxo-6-oxo-9H-purin-8-yl)cinnamic Acid Nonaethylene Glycol Methyl Ether Ester]
0.021 ± 0.012	COCCOCCOCCOCCOCCOCCOCCOCCOCCOC(=O)/C=C/c1ccc(-c2nc3c(=O)n(CCC4CCCCC4)c(=O)n(CCC4CCCCC4)c3[nH]2)cc1 [Example 41, (E)-4-(1,3-bis(2-cyclohexylethyl)-1,2,3,6-tetrahydro-2,6-dioxo-9H-purin-8-yl)cinnamic Acid Nonaethylene Glycol Methyl Ether Ester]
> 2	COCCOCCOCCOCCOCCOCCOCCOCCOCCOC(=O)/C=C/c1ccc(-c2nc3c(=O)n(C)c(=O)n(Cc4ccc(C#N)cc4)c3[nH]2)cc1 [Example 51, (E)-4-(1-methyl-3-(4-cyanobenzyl)-1,2,3,6-tetrahydro-2,6-dioxo-9H-purin-8-yl)cinnamic Acid Nonaethylene Glycol Methyl Ether Ester]
0.23 ± 0.11	COCCOCCOCCOCCOCCOCCOCCOC(=O)/C=C/c1ccc(-c2nc3c(c(=O)[nH]c(=O)n3CC3CCCCC3)n2C)cc1 [Example 103, (E)-4-[(3-Cyclohexylmethyl)-2,3,6,7-tetrahydro-2,6-dioxo-7-methyl-1H-purin-8-yl]cinnamic Acid Heptaethylene Glycol Methyl Ether Ester]
0.71 ± 0.41	COCCOCCOCCOCCOCCOCCOCCOCCOCCOC(=O)/C=C/c1ccc(-c2nc3c(=O)n(C)c(=O)n(C)c3[nH]2)cc1 [Example 47, (E)-4-(1,3-bis(methyl)-1,2,3,6-tetrahydro-2,6-dioxo-9H-purin-8-yl)cinnamic Acid Nonaethylene Glycol Methyl Ether Ester]
0.062 ± 0.027	COCCOCCOCCOCCOCCOCCOCCOCCOCCNC(=O)/C=C/c1ccc(-c2nc3c(=O)n(CC4CCCCC4)c(=O)n(CC4CCCCC4)c3[nH]2)cc1 [Example 69, (E)-4-(1,3-Bis(cyclohexylmethyl)-1,2,3,6-tetrahydro-2,6-dioxo-9H-purin-8-yl)cinnamic Acid Nonaethylene Glycol Methyl Ether Amide]
0.007 ± 0.004	CCOC(=O)Cn1c(-c2ccc(/C=C/C(=O)OCCOCCOCCOCCOCCOCCOCCOCCOCCOC)cc2)nc2c1c(=O)n(CC1CCCCC1)c(=O)n2CC1CCCCC1 [Example 84, (E)-4-(1,3-Bis(cyclohexylmethyl)-2,3,6,7-tetrahydro-2,6-dioxo-7-(2-ethoxy-2-oxoethyl)-1H-purin-8-yl)cinnamic Acid Nonaethylene Glycol Methyl Ether Ester]
> 1	COCCOCCOCCOCCOCCOCCOCCOCCOCCNC(=O)/C=C/c1ccc(-c2nc3c(=O)n(Cc4ccccc4)c(=O)n(Cc4ccccc4)c3[nH]2)cc1 [Example 70, (E)-4-[1,3-bis(benzyl)-1,2,3,6-tetrahydro-2,6-dioxo-9H-purin-8-y]cinnamic Acid Nonaethylene Glycol Methyl Ether Amide]
0.008 ± 0.003	C=C(C)Cn1c(-c2ccc(/C=C/C(=O)OCCOCCOCCOCCOCCOCCOCCOCCOCCOC)cc2)nc2c1c(=O)n(CC1CCCCC1)c(=O)n2CC1CCCCC1 [Example 86, (E)-4-(1,3-Bis(cyclohexylmethyl)-2,3,6,7-tetrahydro-2,6-dioxo-7-(2-methyl-2-propenyl)-1H-purin-8-yl)cinnamic Acid Nonaethylene Glycol Methyl Ether Ester]
0.24 ± 0.2	COCCOCCOCCOCCOCCOCCOCCOCCOCCNC(=O)/C=C/c1ccc(-c2nc3c(=O)n(CC4CCCC4)c(=O)n(CC4CCCC4)c3[nH]2)cc1 [Example 71, (E)-4-(1,3-bis(cyclopentylmethyl)-1,2,3,6-tetrahydro-2,6-dioxo-9H-purin-8-yl)cinnamic Acid Nonaethylene Glycol Methyl Ether Amide]
0.028 ± 0.012	CCn1c(-c2ccc(/C=C/C(=O)OCCOCCOCCOCCOCCOCCOCCOCCOCCOC)cc2)nc2c1c(=O)n(CC1CCCCC1)c(=O)n2CC1CCCCC1 [Example 83, (E)-4-(1,3-Bis(cyclohexylmethyl)-2,3,6,7-tetrahydro-2,6-dioxo-7-ethyl-1H-purin-8-yl)cinnamic Acid Nonaethylene Glycol Methyl Ether Ester]
> 1	COCCOCCOCCOC(=O)/C=C/c1ccc(-c2nc3c(c(=O)n(CC4CCCCC4)c(=O)n3CC3CCCCC3)n2CCOCCOCCOC)cc1 [Example 97]
> 1	CCCn1c(=O)c2nc(-c3cccc(/C=C/C(=O)OCCOCCOCCOCCOCCOCCOCCOCCOCCOC)c3)[nH]c2n(CCC)c1=O [Example 60, (E)-3-(1,3-bis(propyl)-1,2,3,6-tetrahydro-2,6-dioxo-9H-purin-8-yl)cinnamic Acid Nonaethylene Glycol Methyl Ether Ester]
0.89 ± 0.42	COCCOCCOCCOCCOCCOCCOCCOCCOCCOC(=O)/C=C/c1cccc(-c2nc3c(=O)n(Cc4ccccc4)c(=O)n(Cc4ccccc4)c3[nH]2)c1 [Example 46, (E)-3-(1,3-bis(benzyl)-1,2,3,6-tetrahydro-2,6-dioxo-9H-purin-8-yl)cinnamic Acid Nonaethylene Glycol Methyl Ether Ester]

SMILES	IC50 [µM]
COCCOCCOCCOCCOCCOCCOCCOCCOCCOC(=O)c1ccc(-c2nc3c(c(=O)n(CC4CCCCC4)c(=O)n3CC3CCCCC3)n2C)cc1 [Example 89, 4-(1,3-Bis(cyclohexylmethyl)-2,3,6,7-tetrahydro-2,6-dioxo-7-methyl-1H-purin-8-yl)benzoic Acid Nonaethylene Glycol Methyl Ether Ester]	0.038 ± 0.018
COCCOCCOCCOCCOCCOCCOCCOCCOCCNC(=O)c1ccc(-c2nc3c(c(=O)n(CC4CCCCC4)c(=O)n3CC3CCCCC3)n2C)cc1 [Example 94, 4-(1,3-Bis(cyclohexylmethyl)-2,3,6,7-tetrahydro-2,6-dioxo-7-methyl-1H-purin-8-yl)benzoic Acid Nonaethylene Glycol Methyl Ether Amide]	0.22 ± 0.087
COCCOCCOCCOCCOCCOCCOCCOCCOCCN(C)C(=O)c1ccc(-c2nc3c(=O)n(CC4CCCCC4)c(=O)n(CC4CCCCC4)c3[nH]2)cc1 [Example 76, 4-(1,3-Bis(cyclohexylmethyl)-1,2,3,6-tetrahydro-2,6-dioxo-9H-purin-8-yl) benzoic Acid-N-methyl-Nonaethylene Glycol Methyl Ether Amide]	0.35 ± 0.13
COCCOCCOCCOCCOCCOCCOCCOCCOCCOC(=O)c1ccc(-c2nc3c(=O)n(CC4CCCCC4)c(=O)n(CC4CCCCC4)c3[nH]2)cc1 [Example 65, 4-(1,3-bis(cyclohexylmethyl)-1,2,3,6-tetrahydro-2,6-dioxo-9H-purin-8-yl)benzoic Acid Nonaethylene Glycol Methyl Ether Ester]	0.048 ± 0.019

same assay, conditions: inhibition of cytokine-stimulated adhesion minus basal adhesion; calcein-AM labelled leukocytes on HUVEC monolayers; Hydrochloride

IC50 [µM]	SMILES
0.039 ± 0.019	COCCOCCOCCOCCOCCOCCOCCNCc1ccc(-c2nc3c(=O)n(CC4CCCCC4)c(=O)n(CC4CCCCC4)c3[nH]2)cc1 [Example 107, 4-[1,3-Bis(cyclohexylmethyl)-1,2,3,6-tetrahydro-2,6-dioxo-9H-purin-8-yl]benzylamine N-Heptaethylene Glycol Methyl Ether Hydrochloride]

test system: not given; test: not given; settings: not given

melting point [°C]	SMILES
> 250	O=C(O)/C=C/c1ccc(-c2nc3c(=O)n(CC4CC5CCC4C5)c(=O)n(CC4CC5CCC4C5)c3[nH]2)cc1 (stereo not drawn) [Example 12, (E)-4-(1,3-bis(bicyclo(2.2.1)hept-2-ylmethyl)-1,2,3,6-tetrahydro-2,6-dioxo-9H-purin-8-yl)cinnamic Acid]
> 300	O=C(O)/C=C/c1ccc(-c2nc3c(=O)n(CC4CCCC4)c(=O)n(CC4CCCC4)c3[nH]2)cc1 [Example 3, (E)-4-(1,3-bis(cyclopentylmethyl)-1,2,3,6-tetrahydro-2,6-dioxo-9H-purin-8-yl)cinnamic Acid]
> 375	O=C(O)/C=C/c1ccc(-c2nc3c(=O)n(-c4ccccc4)c(=O)n(-c4ccccc4)c3[nH]2)cc1 [Example 9, (E)-4-(1,3-bis(phenyl)-1,2,3,6-tetrahydro-2,6-dioxo-9H-purin-8-yl)cinnamic Acid]
> 350	O=C(O)/C=C/c1ccc(-c2nc3c(=O)n(Cc4ccccc4F)c(=O)n(Cc4ccccc4F)c3[nH]2)cc1 [Example 21, (E)-4-(1,3-bis(2-fluorobenzyl)-1,2,3,6-tetrahydro-2,6-dioxo-9H-purin-8-yl)cinnamic Acid]
> 350	O=C(O)/C=C/c1ccc(-c2nc3c(=O)n(Cc4ccccc4)c(=S)n(Cc4ccccc4)c3[nH]2)cc1 [Example 17, (E)-4-(1,3-bis(benzyl)-1,2,3,6-tetrahydro-2-thioxo-6-oxo-9H-purin-8-yl)cinnamic Acid]
> 300	O=C(O)/C=C/c1ccc(-c2nc3c(=O)n(Cc4ccc(F)cc4)c(=O)n(Cc4ccc(F)cc4)c3[nH]2)cc1 (hydrate or solvate) [Example 25, (E)-4-(1,3-bis(4-fluorobenzyl)-1,2,3,6-tetrahydro-2,6-dioxo-9H-purin-8-yl)cinnamic Acid]

Source: patent publication US6608069B1, “Phenyl xanthine derivatives” (SmithKline Beecham Corporation, priority 1998, dated 2003)
